# Data: patent US8263649B2, “Benzofuran type derivatives, a composition comprising the same for treating or preventing cognitive dysfunction and the use thereof” (Medifron DBT Co., Ltd., priority 2006, dated 2012)
# Legend:
# ChAT positive neuron = assay: ChAT antibody staining of brain sections of transgenic mice; type: in vivo, mouse; details: FIG. 15
# Method: 13 months old dementia model male mice expressing APPswe was used in the experiment and the mice was divided into two groups, i.e., control group consisting of 2 mice and test groups consisting of 4 mice. Each mouse had been fed with the feed mixed with 3 mg of compound IIb everyday for 4 months.
# Four tissue sections per mouse were added to PBST to flocculate and then anti-ChAT was added thereto with a ratio of 1:100. The solution was reacted together for overnight at 4° C. and the tissues were washed with PBST. Secondary antibody (HRP conjugated […] IgG antibody) was added thereto and mixed together with the mixed ratio of 1:1000 at room temperature one hour before the reaction.
# After washing again with PBST, the tissues were stained to brown color with DAB kit as a staining agent. The stained tissues were photographed using by optical microscope connecting with […] camera and then the number of the ChAT positive neuron in the tissues was determined.
# [1] = system: HT22 mouse neuronal cell line treated with aggregated beta amyloid 25-35; assay: Inhibition test of beta amyloid toxicity (MTT); type: cell-based; details: HT22 cells, 25 μm aggregated beta amyloid 25-35, 18 hours
# Method: To determine the inhibitory activity of the compounds prepared in Examples on beta-amyloid toxicity, following test was performed according to the procedure disclosed in the literature (Gillardon, F. et al., Brain Research, 706(1), pp. 169-172, 1996).
# HT22 mouse neuronal cell line was incubated in DMEM (Dulbecco's Modified Eagle's Medium, Gibco-BRL) medium supplemented with 10% FBS (Fetal Bovine Serum, Hyclone) and 1% penicillin/streptomycin (Sigma Co.). Prior to test, HT22 cell was incubated on 96 well plates with a density of 5×10^3 cell/well and further incubated in serum free DMEM medium for 1 hour before the treatment of test sample. Various concentration of compounds prepared in Examples used as a test sample was added thereto and incubated for 1 hour. Aggregated beta amyloid 25-35 (US peptide) was treated thereto to the concentration of 25 μm and incubated for 18 hours to induce cell necrosis. 5 mg/ml of MTT (3-(4,5-dimethyl-2-thiazolyl)-2,5-diphenyl-2H-tetrazolium bromide) solution was added each well with 15 μl/well and the well was incubated for 4 hours. Dissolving buffer solution (10% SDS, 50% dimethyl formamide, pH 4.7) was added to each well with 100 μl/well and reacted for overnight. 18 hours after the reaction, the absorbance of solution was determined by microplate reader (SAFIRE, TECAN) at 570 nm/630 nm wavelength (Gillardon, F. et al., Brain Research, 706(1) pp 169-172, 1996).
# [2] = target: T1, aggregated beta amyloid Ab(1-42) (Homo sapiens, UniProt P05067); assay: Inhibition test of beta amyloid aggregation lysis (Thioflavin T fluorescence); type: biochemical; details: FIG. 1
# T1 construct: Synthetic beta amyloid, Ab(1-42) [Bachem Cat. No. H1368; H-Asp-Ala-Glu- Phe-Arg-His-Asp-Ser-Gly-Tyr; purchased Bachem H1368; host or cells: synthetic peptide
# T1 sequence (P05067 672-713): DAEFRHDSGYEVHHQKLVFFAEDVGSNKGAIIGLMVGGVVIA
# Method: Synthetic beta amyloid, Ab(1-42) [Bachem Cat. No. H1368; H-Asp-Ala-Glu- Phe-Arg-His-Asp-Ser-Gly-Tyr-Glu-Val-His-His-Gln-Lys-Leu-Val-Phe-Phe-Ala-Glu- Asp-Val-Gly-Ser-Asn-Lys-Gly-Ala-Ile-Ile-Gly-Leu-Met-Val-Gly-Gly-Val-Val-Ile- Ala-OH]) was dissolved in DMSO in order that it induces aggregation at the concentration of 25 microM for 1 week. The test group added with aggregated betaamyloid and test samples inhibiting the inhibition of aggregation and a control group added with only A were reacted together at room temperature for 1 hour on fluorescent black plate. ThT (Thioflavin T) was diluted with 50 mM glycine buffer solution to be […] and the diluted solutions were added to each well by 150 μl/well. The fluorescence intensity of each group was determined by microplate reader (SAFIRE, TECAN) at 450 nm excitation wavelength/480 nm emission wavelength after shaking together for 10 seconds.
# [3] = system: ICR mouse administrated aggregated beta amyloid 1-42; assay: AD acute model experiment - Y maze test; type: in vivo
# Method: For passive avoidance test, male ICR mouse weighing 25 g purchased from Samtaco Co. was bred with five mice per cage and the cage was kept with following condition maintaining the temperature of 22±2° C. and the relative humidity of […] under the regularly controlled light/dark condition with an interval of 12 hours.
# Synthetic beta amyloid 1-42 (BACHEM) was dissolved in DMSO in order to be 250 μm solution and diluted with PBS to […] and aggregated at 37° C. for four days (Passive Avoidance test) or six days (Y maze test).
# Aggregated beta amyloid 1-42 was administrated into the mice according to the procedure disclosed in the literature (Lausen & Belknap, J. Pharmacol. Methods, 16 pp 355-357, 1986). […]
# The Y-maze test was performed two days after the administration of beta-amyloid. […] Thereafter, the entering order of the mice into the pathway was observed and the entering time was determined when four limbs of the mice were entered within the pathway. To determine the spatial memory, the percentage of spontaneous alteration behavior was calculated by applying the measured alteration frequency to following empirical formula 1 and the frequency of actual alteration behavior was assigned once at the time that the mice had entered the three pathways continuously. […]
structure (smiles),measurement,setting,value
"COCCCc1ccc2oc(-c3ccc(OC)c(OC)c3)cc2c1 [Compound 18b, 2-(3,4-dimethoxy-phenyl)-5-(3-methoxy-propyl)-benzofuran]",number of neuron (ChAT positive) in brain,ChAT positive neuron,slightly increased
same,inhibition effect on beta-amyloid toxicity,[1],potent inhibition effect
same,solubilizing activity of beta-amyloid,[2],potent solubilizing activity
same,"recovering effect on memory learning capacity damaged by beta-amyloid (Y maze, spontaneous alteration)","[3]; mice, oral, 50, 100 and 200 mg/kg, FIG. 2, FIG. 3",potent recovering effect on memory learning capacity damaged by beta-amyloid in a dose dependent manner
same,"effect on the memory learning capacity (Y maze), best dose group","[3]; treatment group with more than 100 mg/kg, FIG. 3",most excellent effect
